We go through 19 compounds from patent US20120101086A1, “THIADIAZOLE DERIVATIVES AND THEIR USE FOR THE TREATMENT OF DISORDERS MEDIATED BY S1P1 RECEPTORS” (GLAXO GROUP LIMITED, priority 2009, published 2012).

Where a name gives a salt, the structure may show the parent alone. Some results are limits rather than exact numbers.

Usually EC50 stands for the concentration that produces a half-maximal response.

Data set [1] concerns circulating lymphocytes. To be noted: animals and man; cited from earlier work.
For data set [2] the following is noted: clinical studies, first 24 hours of treatment; cited from earlier work.
Data set [3] has as its target T1, S1P1 (Homo sapiens, UniProt P21453). Kind of data set: S1P-1 β-Arrestin recruitment assay. In kind it is cell-based. Set-up: host or cells: PathHunter CHO-K1 EDG1 β-Arrestin cell line. To be noted: PathHunter CHO-K1 EDG1 β-Arrestin cell line, chemi-luminescence. As to the method:
β-Arrestin recruitment assays were carried out using the PathHunter CHO-K1 EDG1 β-Arrestin cell line (DiscoveRx Corporation) in a chemi-luminescence detection assay. This cell line stably expresses β-Arrestin 2 and S1P1 fused to complementing portions of β-galactosidase (‘EA’ and ‘pro-link’, respectively) which associate upon Arrestin recruitment to form functional β-galactosidase enzyme.
Cells were grown to 80% confluency in Growth Medium (F12 nutrient HAMS supplemented with 10% heat-inactivated USA FBS, 1% L-glutamax, 800 m/ml Geneticin and 300 m/ml Hygromycin). Cells were harvested from the flask using Enzyme Free Cell Dissociation Buffer (Gibco) and washed from flasks with Optimem solution (Gibco). Cells were then centrifuged at 1000 rpm for 2-3 min and resuspended in Assay Buffer (Prepared from Sigma kit H1387 supplemented with 20 ml/L HEPES, 4.7 ml/L NaHCO3, 0.1% pluronic acid F-68 solution, 0.1% BSA and adjusted to pH 7.4 using sodium hydroxide at 1×10^6 cells/ml. Cells were dispensed into assay plates containing compounds (100n1/well of a solution of test compound in 100% DMSO) at 1×10^4 cells/well and incubated at 37° C./5% CO2 for 90 min followed by 15 min at room temperature. 5 μl detection mix (1 part Galacton Star, 5 parts Emerald II, 19 parts Assay Buffer; DiscoveRx) were added per well and the plates incubated at room temperature for 60 min. Luminescence was quantified using a Viewlux plate reader.

Data set [4] has as its target T1, S1P1. Briefly: S1P1 GTPγS assay. In kind it is biochemical. The arrangement: expressed in transfected cells; host or cells: RH7777 cells (membranes). To be noted: tested in one of the above S1P1 assays (two protocols). As to the method: The potencies and efficacies of the compounds of this invention for the S1P1 receptor can be determined by GTPγS assay performed on the human cloned receptor as described herein. […] All steps were performed at 4° C. Cells were homogenised within a glass Waring blender for 2 bursts of 15 secs in 200 mls of buffer (50 mM HEPES, 1 mM leupeptin, 25 m/ml bacitracin, 1 mM EDTA, 1 mM PMSF, 2 μM pepstatin A). The blender was plunged into ice for 5 mins after the first burst and 10-40 mins after the final burst to allow foam to dissipate. The material was then spun at 500 g for 20 mins and the supernatant spun for 36 mins at 48,000 g. The pellet was resuspended in the same buffer as above but without PMSF and pepstatin A. The material was then forced through a 0.6 mm needle, made up to the required volume, (usually ×4 the volume of the original cell pellet), aliquoted and stored frozen at—80° C. S1P1 expressing RH7777 membranes (1.5 μg/well) membranes (1.5 μg/well) were homogenised by passing through a 23G needle. These were then adhered to WGA-coated SPA beads (0.125 mg/well) in assay buffer (HEPES 20 mM, MgCl2, 10 mM, NaCl 100 mM and pH adjusted to 7.4 using KOH 5M). GDP 10 μM FAC and saponin 90 μg/ml FAC were also added After 30 minutes precoupling on ice, the bead and membrane suspension was dispensed into white Greiner polypropylene LV 384-well plates (5 μl/well), containing 0.1 μl of compound. 5 μl/well [^35S]-GTPγS (0.5 nM for S1P1 or 0.3 nM for S1P3 final radioligand concentration) made in assay buffer was then added to the plates. The final assay cocktail (10.1 μl) was then sealed, spun on a centrifuge, then read immediately on a Viewlux instrument. Alternatively, after 30 minutes precoupling on ice, the bead and membrane suspension was mixed with ^35S]-GTPγS (0.5 nM final radioligand concentration) in assay buffer (HEPES 20 mM, MgCl2 10 mM, NaCl 100 mM and pH adjusted to 7.4 using KOH 5M) in a 1:1 ratio. The bead, membrane and radioligand suspension was dispensed into white Greiner polypropylene low volume 384-well plates (10 μl/well), containing 0.1 μl of a solution of test compound in 100% DMSO. The final assay cocktail (10.1 μl) was then sealed, spun on a centrifuge, then read immediately on a Viewlux instrument.

T1 sequence (P21453 whole entry, the tested form may be a part): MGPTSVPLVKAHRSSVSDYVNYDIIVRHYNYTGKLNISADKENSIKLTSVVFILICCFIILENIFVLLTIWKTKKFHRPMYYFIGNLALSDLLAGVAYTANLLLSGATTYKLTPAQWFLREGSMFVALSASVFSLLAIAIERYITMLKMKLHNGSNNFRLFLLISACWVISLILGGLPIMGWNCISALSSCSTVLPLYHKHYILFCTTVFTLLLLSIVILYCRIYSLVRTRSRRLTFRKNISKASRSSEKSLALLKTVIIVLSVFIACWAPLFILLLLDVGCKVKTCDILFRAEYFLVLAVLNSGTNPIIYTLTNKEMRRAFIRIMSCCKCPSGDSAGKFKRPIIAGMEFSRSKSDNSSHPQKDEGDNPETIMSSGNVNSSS

As for `CCCCCCCCc1ccc(CCC(N)(CO)CO)cc1` [FTY720], the “effect on circulating lymphocytes” value in data set [1] is “reduce circulating lymphocytes”. Further, in data set [2], the bradycardia result is given as “results in bradycardia”.
The compound `Cc1c2c(nn1-c1nnc(-c3ccc(OC(C)C)c(C#N)c3)s1)CCN(C(=O)CNCCO)C2` [Example 35, 5-(5-{5-[N-(2-hydroxyethyl)glycyl]-3-methyl-4,5,6,7-tetrahydro-2H-pyrazolo[4,3-c]pyridin-2-yl}-1,3,4-thiadiazol-2-yl)-2-[(1-methylethyl)oxy]benzonitrile] showed a half-maximal effective concentration (EC50) in data set [3] not above 10 nM.
`Cc1c2c(nn1-c1nnc(-c3ccc(OC(C)C)c(C#N)c3)s1)CCN(C[C@H](O)CO)C2` [Example 26, 5-(5-{5-[(2S)-2,3-dihydroxypropyl]-3-methyl-4,5,6,7-tetrahydro-2H-pyrazolo[4,3-c]pyridin-2-yl}-1,3,4-thiadiazol-2-yl)-2-[(1-methylethyl)oxy]benzonitrile] had a concentration for a half-maximal effect (EC50) in data set [3] not above 10 nM.
`CC(C)Oc1ccc(-c2nnc(-n3ncc4c3CCN(CCC(=O)O)C4)s2)cc1Cl` [Example 15, 3-[1-(5-{3-Chloro-4-[(1-methylethyl)oxy]phenyl}-1,3,4-thiadiazol-2-yl)-1,4,6,7-tetrahydro-5H-pyrazolo[4,3-c]pyridin-5-yl]propanoic acid]: the EC50 in data set [3] was not above 100 nM.
Turning to `Cc1c2c(nn1-c1nnc(-c3ccc(OC(C)C)c(Cl)c3)s1)CCN(CCC(=O)O)C2` [Example 2, 3-[2-(5-{3-Chloro-4-[(1-methylethyl)oxy]phenyl}-1,3,4-thiadiazol-2-yl)-3-methyl-2,4,6,7-tetrahydro-5H-pyrazolo[4,3-c]pyridin-5-yl]propanoic acid], the EC50 in data set [3] and in data set [4] was not above 10 nM in each case.
Compound `Cc1c2c(nn1-c1nnc(-c3ccc(OC(C)C)c(C#N)c3)s1)CCN(C(CO)CO)C2` [Example 25, 5-(5-{5-[2-hydroxy-1-(hydroxymethyl)ethyl]-3-methyl-4,5,6,7-tetrahydro-2H-pyrazolo[4,3-c]pyridin-2-yl}-1,3,4-thiadiazol-2-yl)-2-[(1-methylethyl)oxy]benzonitrile] showed an EC50 in data set [3] not above 10 nM.
As for `Cc1c2c(nn1-c1nnc(-c3ccc(OC(C)C)c(C#N)c3)s1)CCN(C(=O)CN[C@H](C)CO)C2` [Example 30, 5-[5-(5-{N—[(1R)-2-hydroxy-1-methylethyl]glycyl}-3-methyl-4,5,6,7-tetrahydro-2H-pyrazolo[4,3-c]pyridin-2-yl)-1,3,4-thiadiazol-2-yl]-2-[(1-methylethyl)oxy]benzonitrile], in data set [3], the EC50 was not above 10 nM.
Consider `COC(=O)[C@H](O)CN1CCc2nn(-c3nnc(-c4ccc(OC(C)C)c(Cl)c4)s3)c(C)c2C1` [Example 41, methyl (2R)-3-[2-(5-{3-chloro-4-[(1-methylethyl)oxy]phenyl}-1,3,4-thiadiazol-2-yl)-3-methyl-2,4,6,7-tetrahydro-5H-pyrazolo[4,3-c]pyridin-5-yl]-2-hydroxypropanoate], for which, in data set [3], the EC50 is not above 10 nM.
Compound `Cc1c2c(nn1-c1nnc(-c3ccc(OC(C)C)c(C#N)c3)s1)CCN(CCC(=O)O)C2` [Example 4, 3-[2-(5-{3-Cyano-4-[(1-methylethyl)oxy]phenyl}-1,3,4-thiadiazol-2-yl)-3-methyl-2,4,6,7-tetrahydro-5H-pyrazolo[4,3-c]pyridin-5-yl]propanoic acid trifluoroacetic acid salt] gave an EC50 in data set [3] not above 10 nM.
Compound `CC(C)Oc1ccc(-c2nnc(-n3cc4c(n3)CCN(CCCC(=O)O)C4)s2)cc1C#N` [Example 13, 4-[2-(5-{3-Cyano-4-[(1-methylethyl)oxy]phenyl}-1,3,4-thiadiazol-2-yl)-2,4,6,7-tetrahydro-5H-pyrazolo[4,3-c]pyridin-5-yl]butanoic acid] gave an EC50 in data set [3] not above 10 nM.
On the same count and under the same terms, next, `Cc1c2c(nn1-c1nnc(-c3ccc(OC(C)C)c(C#N)c3)s1)CCN(C(=O)CNC(CO)CO)C2` [Example 36, 5-[5-(5-{N-[2-hydroxy-1-(hydroxymethyl)ethyl]glycyl}-3-methyl-4,5,6,7-tetrahydro-2H-pyrazolo[4,3-c]pyridin-2-yl)-1,3,4-thiadiazol-2-yl]-2-[(1-methylethyl)oxy]benzonitrile]: not above 10 nM.
In data set [3], `Cc1c2c(nn1-c1nnc(-c3ccc(OC(C)C)c(C#N)c3)s1)CCNC2` [Example 3, 2-[(1-Methylethyl)oxy]-5-[5-(3-methyl-4,5,6,7-tetrahydro-2H-pyrazolo[4,3-c]pyridin-2-yl)-1,3,4-thiadiazol-2-yl]benzonitrile] showed a 50% effective concentration (EC50) not above 100 nM.
Same read-out and setting: next, `Cc1c2c(nn1-c1nnc(-c3ccc(OC(C)C)c(C#N)c3)s1)CCN(CCC(N)=O)C2` [Example 5, 3-[2-(5-{3-Cyano-4-[(1-methylethyl)oxy]phenyl}-1,3,4-thiadiazol-2-yl)-3-methyl-2,4,6,7-tetrahydro-5H-pyrazolo[4,3-c]pyridin-5-yl]propanamide]: not above 10 nM.
As for `CC(C)Oc1ccc(-c2nnc(-n3cc4c(n3)CCN(CCC(=O)O)C4)s2)cc1C#N` [Example 12, 3-[2-(5-{3-Cyano-4-[(1-methylethyl)oxy]phenyl}-1,3,4-thiadiazol-2-yl)-2,4,6,7-tetrahydro-5H-pyrazolo[4,3-c]pyridin-5-yl]propanoic acid], the EC50 in data set [3] is not above 10 nM; in data set [4], not above 100 nM.
As for `Cc1c2c(nn1-c1nnc(-c3ccc(OC(C)C)c(C#N)c3)s1)CCN(C(=O)CNC[C@H](O)CO)C2` [Example 34, 5-[5-(5-{N-[(2S)-2,3-dihydroxypropyl]glycyl}-3-methyl-4,5,6,7-tetrahydro-2H-pyrazolo[4,3-c]pyridin-2-yl)-1,3,4-thiadiazol-2-yl]-2-[(1-methylethyl)oxy]benzonitrile], the EC50 in data set [3] was not above 10 nM.
On the same count and under the same terms, next, `Cc1c2c(nn1-c1nnc(-c3ccc(OC(C)C)c(Cl)c3)s1)CCN(C[C@H](O)CO)C2` [Example 42, (2S)-3-[2-(5-{3-chloro-4-[(1-methylethyl)oxy]phenyl}-1,3,4-thiadiazol-2-yl)-3-methyl-2,4,6,7-tetrahydro-5H-pyrazolo[4,3-c]pyridin-5-yl]-1,2-propanediol formic acid salt]: not above 100 nM.
In the case of `CC(C)Oc1ccc(-c2nnc(-n3cc4c(n3)CCN(CCC(=O)O)C4)s2)cc1Cl` [Example 8, 3-[2-(5-{3-Chloro-4-[(1-methylethyl)oxy]phenyl}-1,3,4-thiadiazol-2-yl)-2,4,6,7-tetrahydro-5H-pyrazolo[4,3-c]pyridin-5-yl]propanoic acid], the EC50 in data set [3] is not above 10 nM; in data set [4], not above 100 nM.
As for `CC(C)Oc1ccc(-c2nnc(-n3cc4c(n3)CCN(CCCC(=O)O)C4)s2)cc1Cl` [Example 7, 4-[2-(5-{3-Chloro-4-[(1-methylethyl)oxy]phenyl}-1,3,4-thiadiazol-2-yl)-2,4,6,7-tetrahydro-5H-pyrazolo[4,3-c]pyridin-5-yl]butanoic acid], the EC50 in data set [3] is not above 10 nM; in data set [4], not above 100 nM.
`Cc1c2c(nn1-c1nnc(-c3ccc(OC(C)C)c(C#N)c3)s1)CCN(C(=O)CNC[C@H](C)O)C2` [Example 33, 5-[5-(5-{N-[(2S)-2-hydroxypropyl]glycyl}-3-methyl-4,5,6,7-tetrahydro-2H-pyrazolo[4,3-c]pyridin-2-yl)-1,3,4-thiadiazol-2-yl]-2-[(1-methylethyl)oxy]benzonitrile]: the concentration for a half-maximal effect (EC50) in data set [3] was not above 100 nM.
